Laboratory results from PubChem BioAssay (NCI).
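Each compound was tested at five concentrations against cells in 96-well plates for 48 hours. GI50 is the concentration that inhibits growth by half. Definition used: TGI = concentration required for complete inhibition of growth.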

Experiments:
Test in all cases: NCI-60 cell line screen, 48 h
NCI-H226 lung = tested on: NCI-H226 lung
NCI-H23 lung = tested on: NCI-H23 lung
NCI-H460 lung = tested on: NCI-H460 lung
NCI-H522 lung = tested on: NCI-H522 lung
OVCAR-3 ovarian = tested on: OVCAR-3 ovarian
OVCAR-4 ovarian = tested on: OVCAR-4 ovarian
OVCAR-5 ovarian = tested on: OVCAR-5 ovarian
OVCAR-8 ovarian = tested on: OVCAR-8 ovarian
PC-3 prostate = tested on: PC-3 prostate
RPMI-8226 leukemia = tested on: RPMI-8226 leukemia
RXF 393 renal = tested on: RXF 393 renal
SF-268 CNS = tested on: SF-268 CNS
SF-295 CNS = tested on: SF-295 CNS
SF-539 CNS = tested on: SF-539 CNS
SK-MEL-2 melanoma = tested on: SK-MEL-2 melanoma
SK-MEL-28 melanoma = tested on: SK-MEL-28 melanoma
SK-MEL-5 melanoma = tested on: SK-MEL-5 melanoma
SK-OV-3 ovarian = tested on: SK-OV-3 ovarian
SN12C renal = tested on: SN12C renal
SNB-19 CNS = tested on: SNB-19 CNS
SNB-75 CNS = tested on: SNB-75 CNS
SR leukemia = tested on: SR leukemia
SW-620 colon = tested on: SW-620 colon
T-47D breast = tested on: T-47D breast
TK-10 renal = tested on: TK-10 renal
U251 CNS = tested on: U251 CNS
UACC-257 melanoma = tested on: UACC-257 melanoma
UACC-62 melanoma = tested on: UACC-62 melanoma
UO-31 renal = tested on: UO-31 renal

For COc1cc(CNC(=O)/C=C/c2ccc3c(c2)OCO3)ccc1OCc1cn(-c2cccc(C(F)(F)F)c2)nn1, which GI50 (NCI-H226 lung) is on record?
Its GI50 is 3.38 µM.

What about the TGI (NCI-H226 lung) of the same molecule?
Its TGI is 14.7 µM.

And the GI50 (NCI-H23 lung)?
The GI50 was 10.5 µM.

And the TGI (NCI-H23 lung)?
The TGI was 23.9 µM.

What about the GI50 (NCI-H460 lung) of the same molecule?
The GI50 was 3.28 µM.

What about the TGI (NCI-H460 lung) of the same molecule?
Its TGI is 11.6 µM.

What about the GI50 (NCI-H522 lung) of the same molecule?
Its GI50 is 9.78 µM.

What about the TGI (NCI-H522 lung) of the same molecule?
The TGI was 23.7 µM.

What about the GI50 (OVCAR-3 ovarian) of the same molecule?
Its GI50 is 3.31 µM.

And the TGI (OVCAR-3 ovarian)?
The TGI was 11.6 µM.

And the GI50 (OVCAR-4 ovarian)?
Its GI50 is 2.9 µM.

What about the TGI (OVCAR-4 ovarian) of the same molecule?
Its TGI is 10.3 µM.

And the GI50 (OVCAR-5 ovarian)?
The GI50 was 14.5 µM.

What about the TGI (OVCAR-5 ovarian) of the same molecule?
Its TGI is 31.8 µM.

And the GI50 (OVCAR-8 ovarian)?
The GI50 was 3.91 µM.

What about the TGI (OVCAR-8 ovarian) of the same molecule?
The TGI was 15.4 µM.

And the GI50 (PC-3 prostate)?
Its GI50 is 13.4 µM.

What about the TGI (PC-3 prostate) of the same molecule?
The TGI was 29.3 µM.

And the GI50 (RPMI-8226 leukemia)?
Its GI50 is 18.5 µM.

What about the TGI (RPMI-8226 leukemia) of the same molecule?
Its TGI is over 100 µM.

What about the GI50 (RXF 393 renal) of the same molecule?
Its GI50 is 2.93 µM.

And the TGI (RXF 393 renal)?
Its TGI is 9.87 µM.

And the GI50 (SF-268 CNS)?
The GI50 was 12 µM.

And the TGI (SF-268 CNS)?
The TGI was 34.8 µM.

And the GI50 (SF-295 CNS)?
Its GI50 is 4.84 µM.

What about the TGI (SF-295 CNS) of the same molecule?
Its TGI is 17.8 µM.

And the GI50 (SF-539 CNS)?
The GI50 was 3.54 µM.

And the TGI (SF-539 CNS)?
Its TGI is 12.7 µM.

And the GI50 (SK-MEL-2 melanoma)?
Its GI50 is 10.1 µM.

And the TGI (SK-MEL-2 melanoma)?
The TGI was 22.8 µM.

And the GI50 (SK-MEL-28 melanoma)?
Its GI50 is 8.84 µM.

What about the TGI (SK-MEL-28 melanoma) of the same molecule?
Its TGI is 21.7 µM.

And the GI50 (SK-MEL-5 melanoma)?
Its GI50 is 4.68 µM.

And the TGI (SK-MEL-5 melanoma)?
Its TGI is 16.4 µM.

What about the GI50 (SK-OV-3 ovarian) of the same molecule?
The GI50 was 16.3 µM.

What about the TGI (SK-OV-3 ovarian) of the same molecule?
Its TGI is 36.5 µM.

And the GI50 (SN12C renal)?
The GI50 was 9.04 µM.

And the TGI (SN12C renal)?
The TGI was 27.6 µM.

What about the GI50 (SNB-19 CNS) of the same molecule?
Its GI50 is 13.2 µM.

And the TGI (SNB-19 CNS)?
Its TGI is 27.9 µM.

What about the GI50 (SNB-75 CNS) of the same molecule?
The GI50 was 1.62 µM.

What about the TGI (SNB-75 CNS) of the same molecule?
Its TGI is 5.37 µM.

What about the GI50 (SR leukemia) of the same molecule?
Its GI50 is 21.3 µM.

And the TGI (SR leukemia)?
Its TGI is over 100 µM.

And the GI50 (SW-620 colon)?
The GI50 was 5.86 µM.

What about the TGI (SW-620 colon) of the same molecule?
Its TGI is 22.5 µM.

What about the GI50 (T-47D breast) of the same molecule?
Its GI50 is 3.27 µM.

What about the TGI (T-47D breast) of the same molecule?
The TGI was 26.6 µM.

What about the GI50 (TK-10 renal) of the same molecule?
The GI50 was 13.5 µM.

What about the TGI (TK-10 renal) of the same molecule?
The TGI was 32.2 µM.

What about the GI50 (U251 CNS) of the same molecule?
The GI50 was 4.5 µM.

What about the TGI (U251 CNS) of the same molecule?
Its TGI is 17.6 µM.

And the GI50 (UACC-257 melanoma)?
The GI50 was 10.8 µM.

And the TGI (UACC-257 melanoma)?
Its TGI is 25.4 µM.

And the GI50 (UACC-62 melanoma)?
The GI50 was 11 µM.

What about the TGI (UACC-62 melanoma) of the same molecule?
The TGI was 23.4 µM.

What about the GI50 (UO-31 renal) of the same molecule?
Its GI50 is 2.6 µM.

What about the TGI (UO-31 renal) of the same molecule?
Its TGI is 10.1 µM.
